Active and inactive are the calls of the source. The rule behind the calls is not given here. A value given as a limit tells only on which side of the number the result lay.

The subject of series [1] is Trypanosoma brucei rhodesiense. As to the kind of experiment: Antitrypanosomal activity against Trypanosoma brucei rhodesiense STIB900 bloodstream trypomastigote forms measured on day 3 post treatment by alamar blue assay. Conditions: STIB900, 72 h, read-out: ED50 (the source's name). It counts as functional. Background: The colour change of resazurin is a common sign of viable cells or microbes.

The subject of a further series is Leishmania donovani. The series can be described thus: Antileishmanial activity against Leishmania donovani MHOM/ET/67/HU3 amastigotes infected in CD1 mouse peritoneal macrophages after 5 days. It counts as functional. Conditions: for EC50: MHOM/ET/67/HU3, 120 h, read-out: ED50 (the source's name).
Series [2] is described as follows: Cytotoxicity against human KB cells after 3 days by fluorometric assay. Conditions: read-out: ED50. It counts as toxicity, cell-based.
Series [3] in a line: Selectivity index, ratio of ED50 for human KB cells to ED50 for Trypanosoma brucei rhodesiense STIB900 bloodstream trypomastigote forms. Particulars: read-out: Ratio ED50. It counts as toxicity, cell-based.
For the next series, the species on record is Mus musculus. As to the kind of experiment: Cytotoxicity against CD1 mouse peritoneal macrophages assessed as induction of cell membrane lysis at 30 uM by optical microscopic method. It counts as toxicity. Conditions: peritoneal macrophage.
Series [4] concerns Trypanosoma brucei brucei. As to the kind of experiment: Antitrypanosomal activity against Trypanosoma brucei brucei S247 bloodstream forms assessed as immobility of parasite at 50 uM up to 1 min by optical microscopic method. It counts as functional.
The subject of series [5] is Trypanosoma brucei brucei. As to the kind of experiment: Antitrypanosomal activity against Trypanosoma brucei brucei S247 bloodstream forms assessed as swelling of parasite head at 50 uM after 5 mins by optical microscopic method. It counts as functional.
The subject of series [6] is Trypanosoma brucei brucei. The series can be described thus: Antitrypanosomal activity against Trypanosoma brucei brucei S247 bloodstream forms assessed as circular appearance at 50 uM after 30 to 40 mins by optical microscopic method. It counts as functional.
For series [7], the system named is Trypanosoma brucei brucei. The series can be described thus: Antitrypanosomal activity against Trypanosoma brucei brucei S247 bloodstream forms assessed as swirling motion of cell particles at 50 uM after 1 hr by optical microscopic method. It counts as functional.
Series [8] relates to Trypanosoma brucei brucei. As to the kind of experiment: Antitrypanosomal activity against Trypanosoma brucei brucei S247 bloodstream forms. It counts as functional. Conditions: read-out: ED50 (the source's name).
A short description of series [9]: Drug release fromTrypanosoma brucei brucei S247 bloodstream forms cell membrane at 50 uM after 120 mins in presence of 1 M NaCl by HPLC-UV method. It counts as ADME. Particulars: trypanosoma brucei brucei, 2 h.
Series [10] in a line: Drug release from Trypanosoma brucei brucei S247 bloodstream forms cell membrane at 50 uM after 120 mins in presence of 6 M urea by HPLC-UV method. It counts as ADME, tissue-based. Particulars: blood, 2 h.
A short description of series [11]: Drug uptake in Trypanosoma brucei brucei S247 bloodstream forms at 50 uM after 5 mins by HPLC-UV method. It counts as ADME.
Another series has as its system Trypanosoma cruzi. As to the kind of experiment: Antitrypanosomal activity against Trypanosoma cruzi MHOM/BR/OO/Y trypomastigotes infected in CD1 mouse peritoneal macrophages after 3 days. It counts as functional. Particulars: 72 h, read-out: ED50 (the source's name).
Series [12] in a line: Drug release from Trypanosoma brucei brucei S247 bloodstream forms cell membrane treated with N-benzyloxy carbonyl-S-(4-bromobenzyl)glutathione dimethyl ester at 50 uM after 120 mins in presence of 1 M NaCl by HPLC-UV method. It counts as ADME. Conditions: 2 h.
Series [13] is described as follows: Drug release from Trypanosoma brucei brucei S247 bloodstream forms cell membrane treated with N-benzyloxy carbonyl-S-(4-bromobenzyl)glutathione dimethyl ester at 50 uM after 120 mins in presence of 6 M urea by HPLC-UV method. It counts as ADME, tissue-based. Particulars: blood, 2 h.

Take `CCCCOC(=O)CNC(=O)[C@H](CSc1ccc([N+](=O)[O-])cc1[N+](=O)[O-])NC(=O)CC[C@H](N)C(=O)OCCCC`: the EC50 came out at 1.88 µM in [1] and 19.9 µM with Leishmania donovani. The CC50 at 72 h in series [2] is 107 µM. Besides, the selectivity ratio in [3] was found to be 57.1. Further, the Activity entry in the series listed under Mus musculus is on record as “Toxic”.
`COC(=O)CNC(=O)[C@H](CSCc1ccc(Br)cc1)NC(=O)CC[C@H](NC(=O)OCc1ccccc1)C(=O)OC`: the result in series [4], in series [5], in series [6] and in series [7] was Active. In series [8], the EC50 was 30 µM. The results for the Drug uptake in series [9], in series [10] and in series [11] were 76%, 80% and “Active”, respectively.
Take `CCCCOC(=O)CNC(=O)[C@H](CSc1ccc([N+](=O)[O-])cc1[N+](=O)[O-])NC(=O)CC[C@H](NC(=O)OC(C)(C)C)C(=O)OCCCC`: the EC50 turned out to be 0.22 µM in series [1], 9.9 µM with Leishmania donovani and 16.5 µM in the series with Trypanosoma cruzi. Further, the CC50 at 72 h in series [2] is 70.4 µM. In addition, the selectivity ratio in series [3] stood at 320.
For `CCCCOC(=O)CNC(=O)[C@H](CSc1ccc([N+](=O)[O-])cc1[N+](=O)[O-])NC(=O)CC[C@H](NC(=O)OC)C(=O)OCCCC`, in that order: 2.15 µM, more than 30 µM, 30.4 µM, more than 300 µM and more than 139.
With `CCCCOC(=O)CNC(=O)[C@H](CSc1ccc([N+](=O)[O-])cc1[N+](=O)[O-])NC(=O)CC[C@H](NC(=O)CC(C)(C)C)C(=O)OCCCC`, the figures for the EC50 (in [1]; in the series on Trypanosoma cruzi) were 4.38 µM and 12 µM, respectively. Besides, in series [2], the CC50 at 72 h came out at 250 µM. The selectivity ratio in series [3] stood at 57.1.
With `CCCCOC(=O)CNC(=O)[C@H](CSc1ccc([N+](=O)[O-])cc1[N+](=O)[O-])NC(=O)CC[C@H](NC(=O)CCc1ccccc1)C(=O)OCCCC`, the results for the EC50 (in series [1]; in the series with Leishmania donovani; with Trypanosoma cruzi) were 2.02 µM, more than 30 µM and more than 30 µM, respectively. Besides, the CC50 at 72 h in series [2] is more than 300 µM. Moreover, the selectivity ratio in [3] was more than 148.
As to `CCCCOC(=O)CNC(=O)[C@H](CSc1ccc([N+](=O)[O-])cc1[N+](=O)[O-])NC(=O)CC[C@H](NC(=O)COc1ccccc1)C(=O)OCCCC`, the EC50 in series [1] was 0.6 µM; in the series on Trypanosoma cruzi it was more than 30 µM. Further, in [2], the CC50 at 72 h was more than 300 µM. Moreover, the selectivity ratio in series [3] is more than 500.
For `CCCCOC(=O)CNC(=O)[C@H](CSc1ccc([N+](=O)[O-])cc1[N+](=O)[O-])NC(=O)CC[C@H](NC(=O)c1ccccc1)C(=O)OCCCC`, in that order: 0.55 µM, 22.9 µM, more than 300 µM and more than 545.
As to `CCCCOC(=O)CNC(=O)[C@H](CSc1ccc([N+](=O)[O-])cc1[N+](=O)[O-])NC(=O)CC[C@H](Nc1nc(N)nc(Cl)n1)C(=O)OCCCC`, in [1], the EC50 turned out to be 18.8 µM. The CC50 at 72 h in [2] was more than 300 µM. Also, the selectivity ratio in [3] is more than 15.9.
Turning to `CCCCCCCCCCCCCC(=O)N[C@@H](CCC(=O)N[C@@H](CSc1ccc([N+](=O)[O-])cc1[N+](=O)[O-])C(=O)NCC(=O)OCCCC)C(=O)OCCCC`, the values for the EC50 (in [1]; with Trypanosoma cruzi) were 32.6 µM and more than 30 µM, respectively. Besides, in series [2], the CC50 at 72 h is more than 300 µM. Besides, the selectivity ratio in series [3] is more than 9.2.
As for Sodium stibogluconate, in the series on Leishmania donovani, the ED50 came to 33 µg/mL.
Regarding `CCCCOC(=O)CNC(=O)[C@H](CSc1ccc([N+](=O)[O-])cc1[N+](=O)[O-])NC(=O)CC[C@H](NC(=O)CC(C)C)C(=O)OCCCC`, the EC50 in series [1] is 1.16 µM; with Leishmania donovani it was more than 30 µM; with Trypanosoma cruzi, more than 30 µM. Further, the CC50 at 72 h in series [2] was determined as 59.6 µM. Also, the selectivity ratio in series [3] amounted to 51.4.
On to `CCCCOC(=O)CNC(=O)[C@H](CSc1ccc([N+](=O)[O-])cc1[N+](=O)[O-])NC(=O)CC[C@H](NC(=O)/C=C/c1ccccc1)C(=O)OCCCC`, for which the EC50 in [1] was 0.28 µM; in the series on Trypanosoma cruzi it was more than 30 µM. Further, the CC50 at 72 h in [2] is 34.4 µM. Further, the selectivity ratio in series [3] was 123.
For the molecule `CCCCOC(=O)CNC(=O)[C@H](CSc1ccc([N+](=O)[O-])cc1[N+](=O)[O-])NC(=O)CC[C@H](NC(C)=O)C(=O)OCCCC`, the results for the EC50 (in [1]; in the series on Trypanosoma cruzi) were 6.52 µM and 37.8 µM, respectively. The CC50 at 72 h in [2] was more than 300 µM. Moreover, the selectivity ratio in [3] is more than 46.
Take `CCCCOC(=O)CNC(=O)[C@H](CSc1ccc([N+](=O)[O-])cc1[N+](=O)[O-])NC(=O)CC[C@H](NC(=O)OCc1ccccc1)C(=O)OCCCC`: the EC50 in series [1] was 0.42 µM; with Leishmania donovani, more than 30 µM. Also, the CC50 at 72 h in series [2] came to 95.2 µM. Besides, in series [3], the selectivity ratio was found to be 227.
As to `COC(=O)CNC(=O)[C@H](CSCc1ccc(Br)cc1)NC(=O)CC[C@H](NC(=O)OCc1ccccc1)C(=O)O`, the Drug uptake is listed as 24% in [12] and 8% in series [13].
For the molecule `CCCCOC(=O)CNC(=O)[C@H](CSc1ccc([N+](=O)[O-])cc1[N+](=O)[O-])NC(=O)CC[C@H](NC(=O)CCC(C)C)C(=O)OCCCC`, in [1], the EC50 is 1.02 µM. In series [2], the CC50 at 72 h is 84 µM. Also, the selectivity ratio in series [3] stood at 82.3.
As for `CCCCOC(=O)CNC(=O)[C@H](CSc1ccc([N+](=O)[O-])cc1[N+](=O)[O-])NC(=O)CC[C@H](Nc1ccc([N+](=O)[O-])cc1[N+](=O)[O-])C(=O)OCCCC`, in series [1], the EC50 came out at 0.72 µM. For the same molecule, the CC50 at 72 h in series [2] is more than 300 µM. In series [3], the selectivity ratio was more than 417.
`O=C(Cn1ccnc1[N+](=O)[O-])NCc1ccccc1` [BENZNIDAZOLE]: the EC50 in the series with Trypanosoma cruzi was found to be 4.4 µM.
As for `CCCCOC(=O)CNC(=O)[C@H](CSc1ccc([N+](=O)[O-])cc1[N+](=O)[O-])NC(=O)CC[C@H](NC(=O)C(C)C)C(=O)OCCCC`, the results for the EC50 (in series [1]; with Trypanosoma cruzi) were 0.73 µM and 30.8 µM, respectively. In series [2], the CC50 at 72 h is more than 300 µM. For the same molecule, in series [3], the selectivity ratio is more than 411.
As for `CCCCOC(=O)CNC(=O)[C@H](CSc1ccc([N+](=O)[O-])cc1[N+](=O)[O-])NC(=O)CC[C@H](NC(=O)CCc1c[nH]c2ccccc12)C(=O)OCCCC`, the EC50 turned out to be 0.3 µM in series [1] and 35 µM in the series with Trypanosoma cruzi. In series [2], the CC50 at 72 h came to 26 µM. In addition, in [3], the selectivity ratio came out at 87.
With `CCCCOC(=O)CNC(=O)[C@H](CSc1ccc([N+](=O)[O-])cc1[N+](=O)[O-])NC(=O)CC[C@H](NC(=O)C(C)(C)C)C(=O)OCCCC`, the EC50 in [1] worked out at 0.6 µM; with Trypanosoma cruzi, 8.4 µM. The CC50 at 72 h in [2] was determined as 83.4 µM. Also, the selectivity ratio in series [3] amounted to 139.
`O=C(O)CNC(=O)[C@H](CSCc1ccc(Br)cc1)NC(=O)CC[C@H](NC(=O)OCc1ccccc1)C(=O)O`: in [13], the Drug uptake came out at 12%.
On to `N[C@@H](CCC(=O)N[C@@H](CSc1ccc([N+](=O)[O-])cc1[N+](=O)[O-])C(=O)NCC(=O)O)C(=O)O`, for which the EC50 (in series [1]; with Leishmania donovani; in the series on Trypanosoma cruzi) was more than 30 µM throughout.
For `N=C(N)c1ccc(OCCCCCOc2ccc(C(=N)N)cc2)cc1`, the EC50 in [1] amounted to 0.00033 µM.
For `CCCCOC(=O)CNC(=O)[C@H](CSc1ccc([N+](=O)[O-])cc1[N+](=O)[O-])NC(=O)CC[C@H](NC(=O)OC12CC3CC(CC(C3)C1)C2)C(=O)OCCCC`, the EC50 in series [1] amounted to 0.5 µM; in the series with Leishmania donovani it was 10.1 µM; in the series with Trypanosoma cruzi it was 4.5 µM. The CC50 at 72 h in series [2] is more than 300 µM. The selectivity ratio in series [3] was more than 600.
